Data from patent US10293004B2, “Butyrate-producing bacterium and use thereof” (KABUSHIKI KAISHA YAKULT HONSHA, priority 2014, dated 2019).

Key:
[1] = Turbidity (OD660) after anaerobic culture of bacterial strains in PYGA, PYSA or PYXA medium
Method: A frozen stock solution of each bacterial strain (a 10% (w/v) skim milk-2% sodium glutamate solution in which bacterial cells were suspended) (cell count: 2.0 to 5.5×10^10 cells/mL) was thawed, and the solution was inoculated at 1% to 4 mL of a PY liquid medium supplemented with 33 mM sodium acetate and 0.5 (w/v) % glucose (PYGA medium), followed by anaerobic culture at 37° C. for 24 hours. After the culture, the culture solution was inoculated at 1% to a fresh PYGA medium, followed by anaerobic culture at 37° C. for 24 hours. After the culture, the turbidity (OD660) of the culture solution was measured. Then, the culture solution was inoculated at 1% to a PY medium containing 0.5 (w/v) % L-sorbose or D-xylitol and 33 mM sodium acetate (the medium containing L-sorbose: PYSA, and the medium containing D-xylitol: PYXA), followed by anaerobic culture at 37° C. for 24 hours. Then, the turbidity (OD660) was measured.

[2] = Amount of butyrate produced by culture in PYA medium supplemented with acetate and lactate; details: PYA medium (33 mM sodium acetate) with 40 mM sodium lactate, 37° C. 24 hours, minus PYA without lactate
Method: Each bacterial solution cultured in a PYGA liquid medium under the same conditions as those described in the preceding paragraph 1) was inoculated at 1% to a PYA medium containing 33 mM sodium acetate and further supplemented with 40 mM sodium lactate, followed by anaerobic culture at 37° C. for 24 hours. After the completion of the culture, the organic acid concentration in the culture solution was analyzed by ion-exclusion HPLC. The analysis conditions were the same as those described in the preceding paragraph 1). The amount of butyrate produced was calculated according to (Expression 2). Amount of butyrate produced=(Amount of butyrate produced by culture for 24 hours in a PYA medium supplemented with 40 mM sodium lactate)−(Amount of butyrate produced by culture for 24 hours in a PYA medium without 40 mM sodium lactate) (Expression 2)

[3] = Evaluation of ability to produce butyrate from indigestible saccharides (Example 3)
Excerpt: Galactooligosaccharide (GOS), maltitol, D-mannitol, lactitol, isomalt, isomaltulose, L-sorbose and D-sorbitol were used as indigestible saccharides. These indigestible saccharides used, except for GOS, were reagent grade. GOS used was commercially available Oligomate 55N (Yakult Pharmaceutical Industry Co., Ltd.) from which monosaccharide and lactose fractions (fractions digestible and absorbable by the upper gastrointestinal tract) had been removed using an activated carbon column. Specifically, a saccharide solution diluted with purified water was added to a column packed with activated carbon (manufactured by Wako Pure Chemical Industries, Ltd.) swollen in purified water, and the column was washed with a 2% ethanol solution, followed by the elution of an indigestible fraction with a 50% ethanol solution. The eluate was dried under reduced pressure, and the obtained GOS saccharide solution was used.
A. hadrus YIT 10092^T (DSM 3119^T), which is a type strain of A. hadrus (a typical human intestinal butyrate-producing bacterium), and two isolates were used.
Each of these bacterial strains was anaerobically cultured at 37° C. for 24 hours in a PYA medium containing 33 mM sodium acetate supplemented with 0.5% D-glucose (PYGA medium). The culture solution was inoculated at 1% to a PYA medium containing 0.5 (w/v) % of each indigestible saccharide (test medium), followed by anaerobic culture at 37° C. for 24 hours. After the completion of the culture, the organic acid concentration in the culture solution was analyzed by ion-exclusion HPLC. The analysis conditions were the same as those described above in Example 2. After the quantification of the organic acid concentration, the amount of butyrate produced from each indigestible saccharide and the ratio of butyrate to total short-chain fatty acids were calculated according to the following expressions. (Amount of butyrate produced)=(Amount of butyrate in the test medium after culture)−(Amount of butyrate in a PYA medium without each indigestible saccharide after culture) (Ratio of butyrate)=(Amount of butyrate in the test medium after culture)/((Amount of acetate+Amount of propionate+Amount of butyrate) in the test medium after culture)×100 (Expression 3)

A. hadrus (Eubacterium hadrum) YIT 12355 (NITE BP-01832)
Turbidity (OD660) ([1]; after anaerobic culture at 37° C. for 24 hours in PYGA liquid medium): 3.55
Turbidity (OD660) ([1]; anaerobic culture at 37° C. for 24 hours of 1% inoculum in PYSA (L-sorbose)): 2.39
Turbidity (OD660) ([1]; anaerobic culture at 37° C. for 24 hours of 1% inoculum in PYXA (D-xylitol)): 1.47
Amount of butyrate produced [2]: 19.9 mmol/L
ability to utilize indigestible saccharides ([3]; PYA medium with 0.5 (w/v) % of each indigestible saccharide, versus type strain, FIGS. 3 and 4): more than the type strain YIT 10092^T
Amount of butyrate produced ([3]; from indigestible saccharides, versus type strain, FIG. 3): larger
ratio of butyrate to total short-chain fatty acids ([3]; versus type strain YIT 10092^T, FIG. 4): higher than that of the type strain YIT 10092^T
